The values below come from patent US4849405A, “Oral insulin and a method of making the same” (priority 1986, dated 1989).

This assay has as its system white laboratory rats. Put plainly: Blood glucose level in rats before and three hours after administration of oral insulin preparation. The assay is classed as in vivo. Particulars: rat; preparation containing 5 units of bovine insulin; three hours after administration. How it is done:
Two white laboratory rats, weighing 177 and 197 grams, respectively, were used in this experiment. One rat was administered a preparation of oral insulin according to the present invention containing 5 units of insulin; a formulation of the oral insulin according to the present invention containing 10 units of bovine insulin was administered to the second rat. Blood samples were drawn from each animal before and three hours after administration of the oral insulin preparation. The results given below are expressed as the percentage of the pre-experiment blood glucose level.
One white laboratory rat weighing 181 grams received a non-encapsulated preparation containing 5 units of free bovine insulin. This animal served as the control. After three hours, blood glucose level was 98.7% of the pre-experiment blood glucose level.

Take “free bovine insulin: non-encapsulated preparation containing 5 units of free bovine insulin; served as the control”: the “blood glucose level as percentage of the pre-experiment blood glucose level” value was determined as 98.7%.
